Legend:
[1] = biological target: T1, HMGB3 (Arabidopsis thaliana, UniProt P93047); experiment: SPR competition on 3AESA chip; competition of 4AzSA photoaffinity crosslinking; format: binding; conditions: 1 uM HMGB3 in SPR; 50 uM 4AzSA in PBS for crosslinking; competitive
T1 construct: ORF in pET30 Xa/LIC, 6xHis-tagged, E. coli BL21, Ni-NTA and Superdex 200 purified; ABRC ORF clone
T1 sequence (P93047 1-141): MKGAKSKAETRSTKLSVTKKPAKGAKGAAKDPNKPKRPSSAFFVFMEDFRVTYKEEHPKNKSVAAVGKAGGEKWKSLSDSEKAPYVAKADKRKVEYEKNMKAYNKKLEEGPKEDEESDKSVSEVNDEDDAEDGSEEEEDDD

[2] = biological target: T1, HMGB3; experiment: photoaffinity crosslinking, immunoblot with anti-SA antibody; format: binding; conditions: 50 uM 4AzSA, PBS, on ice, 254 nm UV 30 mJ; covalent

| SMILES | SPR competition on 3AESA chip; competition of 4AzSA photoaffinity crosslinking [1] | photoaffinity crosslinking, immunoblot with anti-SA antibody [2] |
| --- | --- | --- |
| O=C(O)c1ccccc1O [SA, salicylic acid] | this binding was competed in the presence of increasing concentrations of SA |  |
| [N-]=[N+]=Nc1ccc(C(=O)O)c(O)c1 [4AzSA, 4-azido SA] |  | HMGB3 was effectively crosslinked to 4AzSA by UV irradiation |
